Patent publication US11071768B2, “Caspofungin compositions for inhalation” (TRILOGY THERAPEUTICS, INC., priority 2018, dated 2021)
Converted amounts (≈) assume the structure as drawn. “And” between values parts separate entries of the source, which are not always exact repeats. Equal values may be shown once. Values belong to the molecule of their own block, whether it stands above or below them. Starred links: 1 amine or outer side, 2 acyl side, 3 side chain; linkers in the order of their positions; H or OH if unused. Positions of bridges follow the written chain, without caps; N, C: chain ends. Non-standard residues stand in square brackets, D forms with d. Residues, ends and D or L forms follow the SMILES beside them. *: point of attachment. hTyr(3S-OH,4S-OH,3'-OSO3H) = N[C@H](C(=O)O)[C@H](O)[C@@H](O)c1ccc(O)c(OS(=O)(=O)O)c1; pTerphenylCO(4''-OnC5H11) = CCCCCOc1ccc(-c2ccc(-c3ccc(C(=O)*)cc3)cc2)cc1; Orn(4R-OH,5R-OH) = O=C([C@H](C[C@@H](O)[C@@H](O)N[*:3])N[*:1])[*:2]; hTyr(3S-OH,4S-OH) = N[C@H](C(=O)O)[C@H](O)[C@@H](O)c1ccc(O)cc1; Pro(3S-OH,4S-Me) = C[C@H]1CN[C@H](C(=O)O)[C@H]1O; X1 = CCCCCOc1ccc(-c2cc(-c3ccc(C(=O)*)cc3)no2)cc1; Gln(3R-OH) = NC(=O)C[C@@H](O)[C@H](N)C(=O)O; Hyp = O=C(O)[C@@H]1C[C@@H](O)CN1

Key:
[1] = rat; cited from earlier work
[2] = test system: Candida albicans Azole-R (20186.025); assay: In vitro broth microdilution assay (CLSI); assay type: cell-based
Protocol: (§1) The antifungal potency of the test article(s) was measured using the in vitro broth microdilution assay under assay conditions described by the Clinical and Laboratory Standards Institute. In this assay, the Minimum Inhibitory Concentration (MIC) is defined as the lowest concentration of an agent that causes a specified reduction in visible growth of the microorganism. The Minimal Effective Concentration (MEC) is defined as the lowest concentration of an agent that leads to the growth of small, rounded, compact hyphal forms as compared to the hyphal growth seen in the growth control well. In this study, MIC values are determined for the 9 Candida species and Cryptococcus neoformans. MEC values are determined for 3 filamentous fungi (2 Aspergillus fumigatus and Trichophyton rubrum). Test articles were prepared as the following:
(§2) The 3.2 mg/mL working stock solution was 2-fold diluted serially in 0.9% NaCl to prepare a total of eleven 50-fold stock solutions, concentrations ranging from 3.2 to 0.003 mg/mL. A 4 μL aliquot of each dilution was added to 196 μL of broth medium seeded with the organism suspension in wells of a 96 well plate (fungal cell count: 1×10^3 to 1×10^4 colony forming units per mL). The final volume was 200 μL in each well. Following incubation, the test plates were visually examined and wells were scored for growth or complete growth inhibition to define the MIC values. Microscopy examination was used to determine the MEC values. Each test substance was evaluated in duplicate and the results below are the duplicate test values. Vehicle-control and an active reference agent were used as blank and positive controls, respectively.

[3] = test system: Candida albicans ATCC44858; assay: In vitro broth microdilution assay (CLSI); assay type: cell-based
Protocol: as §1, §2

[4] = test system: Candida krusei ATCC 6258; assay: In vitro broth microdilution assay (CLSI); assay type: cell-based
Protocol: as §1, §2

[5] = test system: Candida albicans Azole-R (20183.073); assay: In vitro broth microdilution assay (CLSI); assay type: cell-based
Protocol: as §1, §2

[6] = test system: Candida glabrata ATCC 36583; assay: In vitro broth microdilution assay (CLSI); assay type: cell-based
Protocol: as §1, §2

[7] = test system: Candida albicans ATCC90028; assay: In vitro broth microdilution assay (CLSI); assay type: cell-based
Protocol: as §1, §2

[8] = test system: Candida tropicalis ATCC 200956; assay: In vitro broth microdilution assay (CLSI); assay type: cell-based
Protocol: as §1, §2

[9] = test system: Trichophyton rubrum ATCC 10218; assay: In vitro broth microdilution assay (CLSI); assay type: cell-based
Protocol: as §1, §2

[10] = test system: Candida parapsilosis ATCC 22019; assay: In vitro broth microdilution assay (CLSI); assay type: cell-based
Protocol: as §1, §2

[11] = cited from earlier work
[12] = KF water content of lyophilized formulations; assay type: physicochemical; settings: lyo cake, T0; listed as API (lyo process)
Description: Tables 17 and 18 summarize the % water content measured of the prepared formulations.

[13] = test system: Cryptococcus neoformans ATCC 24067; assay: In vitro broth microdilution assay (CLSI); assay type: cell-based
Protocol: as §1, §2

[14] = test system: Aspergillus fumigatus ATCC204305; assay: In vitro broth microdilution assay (CLSI); assay type: cell-based
Protocol: as §1, §2

[15] = test system: Aspergillus fumigatus ATCC 13073; assay: In vitro broth microdilution assay (CLSI); assay type: cell-based
Protocol: as §1, §2

[16] = Storage stability of lyophilized formulations by HPLC; assay type: physicochemical; settings: for RT 26.1 (hydrolysis degradation product) / RT 37.3 (dimerization degradation product) / HPLC purity % (total caspofungin): lyophilized
Protocol: General: HPLC analysis was carried out on a Waters 2695 separations module equipped with an autosampler and a Waters 996 photodiode array detector. The HPLC method is described below:
Aliquots of 0.5 mL of each formulation listed in Table 3 were frozen on dry ice for 30 min and lyophilized for 40 h to obtain white cakes. A portion of each cake was reconstituted in 1 mL of deionized water and analyzed by HPLC. The vials were stoppered, crimp sealed and placed on stability at 5° C. and 40° C.
Each liquid formulation in Table 5 was equally split into two vials, frozen on dry ice for 1 h and lyophilized for 90 h to obtain white cakes. The vials were stoppered, crimp sealed and placed on stability at 5° C. and 40° C.
The liquid formulations to be lyophilized were prepared according to Table 6. Aliquots of 0.5 mL of each liquid formulation were placed in 3 mL glass vials, frozen on dry ice for 40 min. The vials were partially stoppered with lyo septa and lyophilized for 5 days. The vials were placed on stability at 5° C., ambient (dark) and −20° C.
Fourteen 0.5 mL aliquots of each liquid formulation prepared in part C were placed in 14 3-mL glass vials. The vials were frozen on dry ice for about 1 h and lyophilized for 5 days to obtain white cake. The vials were stoppered, crimp sealed and placed on stability at −20° C., 5° C., and ambient (dark) conditions.
One vial of the lyophilized cake was reconstituted in 1 mL of deionized water to obtain a 10 mg/mL caspofungin diacetate solution. An aliquot (55 μL) was removed and diluted with 1 mL of deionized water for HPLC analysis.
Tables 11, 12, 13, and 14 summarize the total caspofungin (%) as determined by HPLC present for each formulation prepared prior to storage and after several storage conditions. RT as below refers to HPLC retention time. The product with a retention time of 26.1 minutes is a hydrolysis degradation product while the product with a retention time of 37.3 minutes is a dimerization degradation product that is obtained from the dimerization of the hydrolysis products.

[17] = Candida albicans ATCC90028 + 50% human serum

Molecule: CCCCCOc1ccc(-c2cc(-c3ccc(C(=O)N[C@H]4C[C@@H](O)[C@@H](O)NC(=O)[C@@H]5[C@@H](O)[C@@H](C)CN5C(=O)[C@H]([C@H](O)CC(N)=O)NC(=O)[C@H]([C@H](O)[C@@H](O)c5ccc(O)c(OS(=O)(=O)O)c5)NC(=O)[C@@H]5C[C@@H](O)CN5C(=O)[C@H]([C@@H](C)O)NC4=O)cc3)no2)cc1 [Micafungin, micafungin] (X1-[Orn(4R-OH,5R-OH)]T[Hyp][hTyr(3S-OH,4S-OH,3'-OSO3H)][Gln(3R-OH)][Pro(3S-OH,4S-Me)]; lactam 1-C)
Exposure in the kidney relative to plasma [1]: 3.4 fold | Exposure in the liver relative to plasma [1]: 1.6 fold | Exposure in the lung relative to plasma [1]: 2.9 fold

MIC [2]: 0.25 µg/mL (≈ 0.271 µM) | MIC [3]: 0.125 µg/mL (≈ 0.135 µM) | MIC [4]: 0.25 µg/mL (≈ 0.271 µM) | MIC [5]: 0.125 µg/mL (≈ 0.135 µM) | MIC [6]: 0.125 µg/mL (≈ 0.135 µM) | MIC ([7]; Candida albicans ATCC90028): 0.125 µg/mL (≈ 0.135 µM) | MIC [7, 17]: 0.25 µg/mL | MIC [8]: 1 µg/mL (≈ 1.08 µM) | MIC [9]: 0.125 µg/mL (≈ 0.135 µM) | MIC [10]: 0.25 µg/mL (≈ 0.271 µM)
Molecule: C[C@@H]1[C@H](O)[C@@H](C)/C=C/C=C/C=C/C=C/C=C/C=C/C=C/[C@H](O[C@@H]2O[C@H](C)[C@@H](O)[C@H](N)[C@@H]2O)C[C@@H]2O[C@](O)(C[C@@H](O)C[C@@H](O)[C@H](O)CC[C@@H](O)C[C@@H](O)CC(=O)O[C@H]1C)C[C@H](O)[C@H]2C(=O)O [amphotericin B]

Molecule: CCCCCOc1ccc(-c2ccc(-c3ccc(C(=O)N[C@H]4C[C@@H](O)[C@@H](O)NC(=O)[C@@H]5[C@@H](O)[C@@H](C)CN5C(=O)[C@H]([C@@H](C)O)NC(=O)[C@H]([C@H](O)[C@@H](O)c5ccc(O)cc5)NC(=O)[C@@H]5C[C@@H](O)CN5C(=O)[C@H]([C@@H](C)O)NC4=O)cc3)cc2)cc1 [anidulafungin] ({pTerphenylCO(4''-OnC5H11)}-[Orn(4R-OH,5R-OH)]T[Hyp][hTyr(3S-OH,4S-OH)]T[Pro(3S-OH,4S-Me)]; lactam 1-C)
Time that levels stay above MICs for common pathogens ([11]; rat tissues): 72 h | Exposure in tissues (liver, lung, spleen, kidney) relative to plasma ([11]; rat): 9-12 fold | Time to peak concentrations in tissues ([11]; rat): ≤ 30 min

Molecule: caspofungin diacetate
KF water content % [12]: 6.16% and 3.94% | MIC [2]: 0.25 µg/mL | MIC [13]: 16 µg/mL | MIC [3]: 0.25 µg/mL | MIC [4]: 1 µg/mL | MIC [5]: 0.25 µg/mL | MIC [6]: 0.25 µg/mL | MIC ([7]; Candida albicans ATCC90028): 0.25 µg/mL | MIC [7, 17]: 0.125 µg/mL | MEC [14]: 0.125 µg/mL | MEC [15]: 0.0625 µg/mL | MIC [8]: 0.25 µg/mL | MEC [9]: 0.125 µg/mL | MIC [10]: 1 µg/mL | HPLC purity of control ([16]; Pure API control, as printed in the head): 99.72%) | RT 26.1 (hydrolysis degradation product) ([16]; 40° C. 1 week): 2.88% | RT 37.3 (dimerization degradation product) ([16]; 40° C. 1 week): 9.26% | HPLC purity % (total caspofungin) ([16]; 40° C. 1 week, listed as API (lyo process)): 82.32% | HPLC purity % (total caspofungin) ([16]; 40° C. 1 week, listed as Pure API): 88.48% | HPLC purity % (total caspofungin) ([16]; 40° C. 3 week): 75.71% | RT 26.1 (hydrolysis degradation product) ([16]; 40° C. 3 week): 6.09% | RT 37.3 (dimerization degradation product) ([16]; 40° C. 3 week): 4.38% | RT 26.1 (hydrolysis degradation product) ([16]; T0): 2.17% | RT 37.3 (dimerization degradation product) ([16]; T0): 1.57% | HPLC purity % (total caspofungin) ([16]; T0, listed as API (lyo process)): 95.82% and 95.42%
